Laboratory results taken from patent US20250319046A1, “PHENYLALANINE-BASED LAT1 INHIBITORS AND USES THEREOF” (MAXYMUNE THERAPEUTICS, INC., priority 2024, published 2025).
Structures can show the parent of a compound that is named as a salt. Where two headings read alike, the source gives them in different places.

Key:
LAT1 = LAT1 (Homo sapiens (Human), UniProt Q01650); assay: LAT1 uptake inhibition assay: [3H]-gabapentin competition uptake in LN229 cells; format: cell-based; conditions: [3H]-gabapentin uptake
Sequence of LAT1 (Q01650 whole entry): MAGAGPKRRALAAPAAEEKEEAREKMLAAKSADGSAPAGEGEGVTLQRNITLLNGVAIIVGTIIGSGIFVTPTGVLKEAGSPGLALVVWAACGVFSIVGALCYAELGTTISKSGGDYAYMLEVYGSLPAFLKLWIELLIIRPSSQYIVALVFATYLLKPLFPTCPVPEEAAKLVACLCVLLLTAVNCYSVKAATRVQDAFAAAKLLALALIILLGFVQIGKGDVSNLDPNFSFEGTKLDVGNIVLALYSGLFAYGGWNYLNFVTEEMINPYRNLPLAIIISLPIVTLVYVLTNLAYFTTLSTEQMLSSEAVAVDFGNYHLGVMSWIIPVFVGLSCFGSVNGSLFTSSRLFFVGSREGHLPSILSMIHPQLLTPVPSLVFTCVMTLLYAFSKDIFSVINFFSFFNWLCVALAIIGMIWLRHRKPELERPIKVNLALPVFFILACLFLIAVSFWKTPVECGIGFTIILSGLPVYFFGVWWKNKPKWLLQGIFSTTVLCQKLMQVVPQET
Sequence of LAT1 (P08195 whole entry partner): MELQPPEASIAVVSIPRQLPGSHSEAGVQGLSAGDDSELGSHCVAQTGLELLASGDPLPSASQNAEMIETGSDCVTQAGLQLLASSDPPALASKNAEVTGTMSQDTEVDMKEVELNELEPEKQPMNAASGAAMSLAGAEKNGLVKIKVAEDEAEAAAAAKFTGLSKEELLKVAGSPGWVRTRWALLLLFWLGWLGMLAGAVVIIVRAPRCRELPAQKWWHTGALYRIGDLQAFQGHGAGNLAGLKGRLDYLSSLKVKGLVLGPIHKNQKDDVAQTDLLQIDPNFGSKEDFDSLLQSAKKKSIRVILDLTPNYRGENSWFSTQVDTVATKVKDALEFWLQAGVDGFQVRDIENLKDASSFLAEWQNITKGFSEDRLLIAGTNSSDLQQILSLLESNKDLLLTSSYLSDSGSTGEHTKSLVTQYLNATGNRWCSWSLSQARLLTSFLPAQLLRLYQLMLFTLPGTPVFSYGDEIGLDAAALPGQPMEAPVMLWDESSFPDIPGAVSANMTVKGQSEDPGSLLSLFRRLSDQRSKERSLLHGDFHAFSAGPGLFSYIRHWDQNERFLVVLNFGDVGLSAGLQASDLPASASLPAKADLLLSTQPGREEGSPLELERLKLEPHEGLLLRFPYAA
Method: LAT1 Uptake Inhibition Assay
The ability of compounds to interact with LAT1 was measured using a radiolabeled competition uptake assay with [^3H]-Gabapentin ([^3H]-GP) (Perkin Elmer) in 96-well plates with LN229 cells (ATCC®). Ten (10)×10^3 (10,000) cells/well were plated in white, clear bottom plates and were allowed to grow for three (3) days. On the fourth day, the cells were washed and then incubated with 50,000 counts per minute (cpm) of [^3H]-GP in phosphate buffered saline (PBS) (VWR International) with increasing concentrations of test compounds in at least triplicate for 15 min. At end of the assay time, the incubation solution was removed, and plates were washed three times (3×) with 100 μL of ice-cold PBS buffer. One-hundred fifty (150) […] of scintillation fluid (VWR International) was added to each well, and the radioactivity retained within the cells was measured on a 96-well scintillation counter. Background uptake ([^3H]-GP uptake in the presence of 10 mM non-radiolabeled gabapentin (GP)) (MedKoo) was subtracted and data were normalized to the DMSO control ([^3H]-GP uptake in the absence of any competitor). Data were fitted to the Michaelis-Menten equation using GraphPad Prism (Version 8.2.0).

LN229 cells = assay: Amino acid starvation assay: antiproliferation assay with LN229 cells (CellTiter-Glo); format: cell-based; conditions: F12K medium, six days
Method: Amino Acid Starvation Assay
The ability of compounds to inhibit amino acid uptake interact with LAT1 was measured using an antiproliferation assay with LN229 cells (ATCC®). LN229 cells were cultured in DMEM medium (VWR International). Two (2)×10^3 (2,000) cells/well were plated in clear bottom 96-well plates (CellBIND®, Corning 3340) and were allowed to attach overnight. The next day, cells were washed once with PBS buffer (VWR International). F12K medium ([…]) (VWR International) with increasing concentrations of test compounds in at least triplicate was added. Cells were incubated for six (6) days at 37° C. and 5% CO2. At end of the assay, 140 μL of supernatant medium were removed from each well and 60 μL of CellTiter-Glo® (Promega) were added. Cell lysis was induced by placing the plates for three (3) minutes on an orbital shaker. Plates were incubated for 10 min at 25° C. to stabilize the luminesce signal. Luminescence was recorded using an EnSpire® Multimode Plate Reader (Perkin Elmer). Background (luminescence from wells incubated in the presence of 100 µM of commercial LAT1 inhibitor JPH203 (MedKoo) was subtracted, and data were normalized to the DMSO control (proliferation in the absence of any competitor). Data were fitted to the Michaelis-Menten equation using GraphPad Prism (Version 8.2.0).

[1] = 15 min incubation in PBS, read-out: IC50, the concentration of test compound at which the [3H]-GP uptake was inhibited by 50%
[2] = Table 1, read-out: LAT1 inhibition IC50 (nM ± SE)
[3] = Homo sapiens, LN-229, 144 h, Table 1, read-out: Anti-proliferation LC50 (μM ± SE)
[4] = Homo sapiens, LN-229, 144 h, read-out: LC50, the concentration of test compound at which the proliferation was inhibited by 50%

SMILES	IC50 (LAT1; [1])	IC50 (LAT1; [2])	IC50 (LAT1; read-out: IC50 in the LAT1 uptake inhibition assay)	CC50 (LN229 cells; [3])	CC50 (LN229 cells; [4])	CC50 (LN229 cells; Table 1, read-out: Anti-proliferation LC50 (μM ± SE))
Cc1ccc(S(=O)(=O)Nc2cccc3c(N(C)C)cccc23)cc1C[C@H](N)C(=O)O [Compound 49, (S)-2-Amino-3-(5-(N-(5-(dimethylamino)naphthalen-1-yl)sulfamoyl)-2-methylphenyl)propanoic Acid]	20 to 100 nM	80 ± 20 nM		100 ± 10 µM	≥ 100 µM	
Cc1ccc(NS(=O)(=O)c2cccc(-c3ccccc3)c2)cc1C[C@H](N)C(=O)O [Compound 38, (S)-3-(5-([1,1′-Biphenyl]-3-sulfonamido)-2-methylphenyl)-2-aminopropanoic Acid]	20 to 100 nM	40 ± 10 nM		52 ± 2 µM	30 to 100 µM	
Cc1ccc(S(=O)(=O)Nc2ccccc2)cc1C[C@H](N)C(=O)O [Compound 35, (S)-2-Amino-3-(2-methyl-5-(N-phenylsulfamoyl)phenyl)propanoic Acid Hydrochloride]		30 ± 8 nM				40 ± 10 µM
CCCCNS(=O)(=O)c1ccc(C)c(C[C@H](N)C(=O)O)c1 [Compound 41, (S)-2-Amino-3-(5-(N-butylsulfamoyl)-2-methylphenyl)propanoic Acid]	20 to 100 nM	56 ± 9 nM		36 ± 10 µM	30 to 100 µM	
COc1ccc(NS(=O)(=O)c2ccc(C)c(C[C@H](N)C(=O)O)c2)cc1 [Compound 44, (S)-2-Amino-3-(5-(N-(4-methoxyphenyl)sulfamoyl)-2-methylphenyl)propanoic Acid]	≤ 20 nM	10 ± 3 nM		20 ± 6 µM	< 30 µM	
Cc1ccc(NS(=O)(=O)c2cccc(Br)c2)cc1C[C@H](N)C(=O)O [Compound 29, (S)-2-Amino-3-(5-((3-bromophenyl)sulfonamido)-2-methylphenyl)propanoic Acid]	20 to 100 nM	40 ± 10 nM		90 ± 30 µM	30 to 100 µM	
Cc1ccc(S(=O)(=O)NC2CCCCC2)cc1C[C@H](N)C(=O)O [Compound 53, (S)-2-Amino-3-(5-(N-cyclohexylsulfamoyl)-2-methylphenyl)propanoic Acid]	20 to 100 nM	60 ± 10 nM		100 ± 10 µM	≥ 100 µM	
Cc1ccc(NS(=O)(=O)c2ccccc2)cc1C[C@H](N)C(=O)O [Compound 10, (S)-2-Amino-3-(2-methyl-5-(phenylsulfonamido)phenyl)propanoic Acid]	20 to 100 nM	100 ± 40 nM		70 ± 20 µM	30 to 100 µM	
Cc1ccc(S(=O)(=O)Nc2cccc3ccccc23)cc1C[C@H](N)C(=O)O [Compound 39, (S)-2-Amino-3-(2-methyl-5-(N-(naphthalen-1-yl)sulfamoyl)phenyl)propanoic Acid]	20 to 100 nM	24 ± 9 nM		32 ± 2 µM	30 to 100 µM	
CC(C)c1ccc(NS(=O)(=O)c2cccc3c(N(C)C)cccc23)cc1C[C@H](N)C(=O)O [Compound 21, (S)-2-Amino-3-(5-((5-(dimethylamino)naphthalene)-1-sulfonamido)-2-isopropylphenyl)propanoic Acid]	20 to 100 nM	50 ± 10 nM		49 ± 1 µM	30 to 100 µM	
Cc1ccc(S(=O)(=O)Nc2ccc(Cl)cc2)cc1C[C@H](N)C(=O)O [Compound 52, (S)-2-Amino-3-(5-(N-(4-chlorophenyl)sulfamoyl)-2-methylphenyl)propanoic Acid]	≤ 20 nM	12 ± 2 nM		9.7 ± 0.7 µM	< 30 µM	
Cc1ccc(S(=O)(=O)Nc2ccc(-c3ccccc3)cc2)cc1C[C@H](N)C(=O)O [Compound 40, (S)-3-(5-(N-([1,1′-Biphenyl]-4-yl)sulfamoyl)-2-methylphenyl)-2-aminopropanoic Acid]	20 to 100 nM	25 ± 8 nM		60 ± 20 µM	30 to 100 µM	
Cc1ccc(S(=O)(=O)NCc2ccccc2)cc1C[C@H](N)C(=O)O [Compound 30, (S)-2-Amino-3-(5-(N-benzylsulfamoyl)-2-methylphenyl)propanoic Acid]	≤ 20 nM	20 ± 4 nM		38 ± 2 µM	30 to 100 µM	

Continued, in another order:

IC50 (LAT1; [1])	IC50 (LAT1; [2])	IC50 (LAT1; read-out: IC50 in the LAT1 uptake inhibition assay)	SMILES	CC50 (LN229 cells; [3])	CC50 (LN229 cells; [4])	CC50 (LN229 cells; Table 1, read-out: Anti-proliferation LC50 (μM ± SE))
20 to 100 nM	100 ± 20 nM		Cc1ccc(NS(=O)(=O)c2ccc(C(C)(C)C)cc2)cc1C[C@H](N)C(=O)O [Compound 87, (S)-2-Amino-3-(5-((4-(tert-butyl)phenyl)sulfonamido)-2-methylphenyl)propanoic Acid]	100 ± 20 µM	≥ 100 µM	
≤ 20 nM	12 ± 4 nM		Cc1ccc(S(=O)(=O)Nc2ccc(Br)cc2)cc1C[C@H](N)C(=O)O [Compound 77, (S)-2-Amino-3-(5-(N-(4-bromophenyl)sulfamoyl)-2-methylphenyl)propanoic Acid]	13 ± 1 µM	< 30 µM	
20 to 100 nM			Cc1ccc(S(=O)(=O)Nc2ccc(Cl)cc2)cc1C[C@H](N)C(=O)OC(C)(C)C [Compound 82, tert-Butyl (S)-2-amino-3-(5-(N-(4-chlorophenyl)sulfamoyl)-2-methylphenyl)propanoate]		≥ 100 µM	
≤ 20 nM	10 ± 1 nM		CC(C)c1ccc(S(=O)(=O)Nc2ccc(Cl)cc2)cc1C[C@H](N)C(=O)O [Compound 86, (S)-2-Amino-3-(5-(N-(4-chlorophenyl)sulfamoyl)-2-isopropylphenyl)propanoic Acid]	4 ± 0.7 µM	< 30 µM	
		19 ± 6 nM	Nc1cc(COc2c(Cl)cc(C[C@H](N)C(=O)O)cc2Cl)c2oc(-c3ccccc3)nc2c1 [JPH203, (S)-2-Amino-3-(4-((5-amino-2-phenylbenzo[d]oxazol-7-yl)methoxy)-3,5-dichlorophenyl)propanoic Acid, reference compound]		20 ± 10 µM	
20 to 100 nM	80 ± 10 nM		N[C@@H](Cc1cccc(S(=O)(=O)Nc2ccc(Cl)cc2)c1)C(=O)O [Compound 79, (S)-2-Amino-3-(3-(N-(4-chlorophenyl)sulfamoyl)phenyl)propanoic Acid]	100 ± 20 µM	≥ 100 µM	
≤ 20 nM	9 ± 3 nM		Cc1ccc(S(=O)(=O)Nc2cccc(Br)c2)cc1C[C@H](N)C(=O)O [Compound 76, (S)-2-Amino-3-(5-(N-(3-bromophenyl)sulfamoyl)-2-methylphenyl)propanoic Acid]	11 ± 1 µM	< 30 µM	
